Results on 30 molecules are retold here after patent publication US12319672B2, “Alpha-D-galactopyranoside derivatives” (Idorsia Pharmaceuticals Ltd, priority 2019, dated 2025).

One test has as its target human Gal-3 (hGal-3) (Homo sapiens (Human), UniProt P17931). Briefly: Competitive binding assay: binding of biotinylated hGal-3 to microplate-adsorbed asialofetuin (ASF). The note with it: Activity on hGal-3; mean values of several measurements. The method, boiled down:
(§1)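 For hGal-1, a variant with all six cysteines replaced by serines is preferred. Either galectin, biotinylated at 300-1000 ng/mL, competes with compound for microplate-bound ASF over 3 h at 4° C; peroxidase/ABTS detection gives IC50, averaged.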

A further test addresses human Gal-1 (hGal-1). Kind of test: Competitive binding assay: binding of biotinylated hGal-1 to microplate-adsorbed asialofetuin (ASF). The note with it: Activities on hGal-1; mean values of several measurements. The method, boiled down: as §1

Sequence of human Gal-1 (hGal-1) (P09382 2-135 limits assumed): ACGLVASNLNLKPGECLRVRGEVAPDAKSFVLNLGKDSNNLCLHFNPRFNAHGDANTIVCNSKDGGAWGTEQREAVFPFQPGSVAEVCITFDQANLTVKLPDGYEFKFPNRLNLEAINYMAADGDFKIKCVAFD
Sequence of human Gal-3 (hGal-3) (P17931 whole entry): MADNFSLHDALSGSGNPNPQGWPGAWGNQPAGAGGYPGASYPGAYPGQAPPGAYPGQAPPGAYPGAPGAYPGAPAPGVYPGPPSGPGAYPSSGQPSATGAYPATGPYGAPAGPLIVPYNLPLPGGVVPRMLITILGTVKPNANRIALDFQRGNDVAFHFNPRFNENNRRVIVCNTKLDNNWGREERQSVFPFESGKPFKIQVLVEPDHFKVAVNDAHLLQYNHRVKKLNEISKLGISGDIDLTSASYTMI

In the case of `Cc1cc(-c2cn([C@H]3[C@@H](O)[C@@H](CO)O[C@H](CC4CC(C5CCN(C(=O)OC(C)(C)C)CC5)=NO4)[C@@H]3O)nn2)ccc1F` (stereo partly drawn) [Ex 1.99], the figures for the IC50 on human Gal-3 (hGal-3) and at human Gal-1 (hGal-1) were 400 nM and 471 nM, respectively.
Turning to `CC(C)(C)OC(=O)N1CCC(C2=NOC(C[C@H]3O[C@H](CO)[C@H](O)[C@H](n4cc(-c5ccc(C#N)c(F)c5)nn4)[C@H]3O)C2)CC1` (stereo partly drawn) [Ex 1.100], the IC50 at human Gal-3 (hGal-3) turned out to be 650 nM; on human Gal-1 (hGal-1) it was 4900 nM.
With `CC(C)(C)OC(=O)N1CCC(C2=NOC(C[C@H]3O[C@H](CO)[C@H](O)[C@H](n4cc(-c5cc(F)c(Cl)c(F)c5)nn4)[C@H]3O)C2)CC1` (stereo partly drawn) [Ex 1.101], the IC50 on human Gal-3 (hGal-3) came to 180 nM; on human Gal-1 (hGal-1), 4100 nM.
In the case of `CC(C)(C)OC(=O)N1CCC(C2=NOC(C[C@H]3O[C@H](CO)[C@H](O)[C@H](n4cc(-c5ccc(Cl)c(F)c5F)nn4)[C@H]3O)C2)CC1` (stereo partly drawn) [Ex 1.102], the IC50 came to 82 nM at human Gal-3 (hGal-3) and 2370 nM at human Gal-1 (hGal-1).
For `CC(C)(C)OC(=O)N1CCC(C2=NOC(C[C@H]3O[C@H](CO)[C@H](O)[C@H](n4cc(-c5ccc(C(F)(F)F)c(F)c5)nn4)[C@H]3O)C2)CC1` (stereo partly drawn) [Ex 1.103], the IC50 at human Gal-3 (hGal-3) is 450 nM; at human Gal-1 (hGal-1) it was 9820 nM.
For the molecule `CC(C)(C)OC(=O)N1CCC(C2=NOC(C[C@H]3O[C@H](CO)[C@H](O)[C@H](n4cc(-c5ccc(F)cn5)nn4)[C@H]3O)C2)CC1` (stereo partly drawn) [Ex 1.104], the IC50 at human Gal-3 (hGal-3) stood at 1840 nM; at human Gal-1 (hGal-1), 450 nM.
`CC(C)(C)OC(=O)N1CCC(C2=NOC(C[C@H]3O[C@H](CO)[C@H](O)[C@H](n4cc(-c5cc(Cl)ccc5Cl)nn4)[C@H]3O)C2)CC1` (stereo partly drawn) [Ex 1.105]: the IC50 at human Gal-3 (hGal-3) was found to be 1680 nM; at human Gal-1 (hGal-1) it was 2340 nM.
For `COc1cc(F)c(F)cc1-c1cn([C@H]2[C@@H](O)[C@@H](CO)O[C@H](CC3CC(C4CCN(C(=O)OC(C)(C)C)CC4)=NO3)[C@@H]2O)nn1` (stereo partly drawn) [Ex 1.106], the figures for the IC50 on human Gal-3 (hGal-3) and at human Gal-1 (hGal-1) were 490 nM and 1530 nM, respectively.
Turning to `CC(C)(C)OC(=O)N1CCC(C2=NOC(C[C@H]3O[C@H](CO)[C@H](O)[C@H](n4cc(-c5ccc(Cl)c(Cl)c5)nn4)[C@H]3O)C2)CC1` (stereo partly drawn) [Ex 1.107], the IC50 was determined as 110 nM on human Gal-3 (hGal-3) and 400 nM at human Gal-1 (hGal-1).
Turning to `COc1cc(-c2cn([C@H]3[C@@H](O)[C@@H](CO)O[C@H](CC4CC(C5CCN(C(=O)OC(C)(C)C)CC5)=NO4)[C@@H]3O)nn2)cc(F)c1F` (stereo partly drawn) [Ex 1.108], the IC50 was determined as 180 nM on human Gal-3 (hGal-3) and 1690 nM on human Gal-1 (hGal-1).
`CC(C)(C)OC(=O)N1CCC(C2=NOC(C[C@H]3O[C@H](CO)[C@H](O)[C@H](n4cc(-c5nc6ccccc6s5)nn4)[C@H]3O)C2)CC1` (stereo partly drawn) [Ex 1.109]: the values for the IC50 at human Gal-3 (hGal-3) and on human Gal-1 (hGal-1) were 1600 nM and 210 nM, respectively.
On to `COc1cc(-c2cn([C@H]3[C@@H](O)[C@@H](CO)O[C@H](CC4CC(C5CCN(C(=O)OC(C)(C)C)CC5)=NO4)[C@@H]3O)nn2)ccc1Cl` (stereo partly drawn) [Ex 1.110], for which the IC50 on human Gal-3 (hGal-3) amounted to 250 nM; at human Gal-1 (hGal-1), 2240 nM.
As for `COc1cc(OC)c(-c2cn([C@H]3[C@@H](O)[C@@H](CO)O[C@H](CC4CC(C5CCN(C(=O)OC(C)(C)C)CC5)=NO4)[C@@H]3O)nn2)cc1F` (stereo partly drawn) [Ex 1.111], the IC50 at human Gal-3 (hGal-3) is 1660 nM; on human Gal-1 (hGal-1), 11500 nM.
Take `Cc1c(F)cccc1-c1cn([C@H]2[C@@H](O)[C@@H](CO)O[C@H](CC3CC(C4CCN(C(=O)OC(C)(C)C)CC4)=NO3)[C@@H]2O)nn1` (stereo partly drawn) [Ex 1.112]: the figures for the IC50 at human Gal-3 (hGal-3) and on human Gal-1 (hGal-1) were 1000 nM and 770 nM, respectively.
For the molecule `COc1ccc(-c2cn([C@H]3[C@@H](O)[C@@H](CO)O[C@H](CC4CC(C5CCN(C(=O)OC(C)(C)C)CC5)=NO4)[C@@H]3O)nn2)cc1` (stereo partly drawn) [Ex 1.113], the IC50 at human Gal-3 (hGal-3) amounted to 1060 nM; at human Gal-1 (hGal-1) it was 640 nM.
For `CO[C@@H]1[C@@H](n2cc(-c3cc(F)c(F)c(F)c3)nn2)[C@@H](O)[C@@H](CO)O[C@@H]1Cc1cc(C2CCC(=O)NC2)no1` (stereo partly drawn) [Ex 1.114], in that order: 75 nM and 1360 nM.
The like results for `CO[C@@H]1[C@@H](n2cc(-c3cccc(F)c3)nn2)[C@@H](O)[C@@H](CO)O[C@@H]1CC1CC(C2CCN(C(=O)OC(C)(C)C)CC2)=NO1` (stereo partly drawn) [Ex 1.115] were, in that order, 440 nM and 940 nM.
Turning to `CO[C@@H]1[C@@H](n2cc(-c3ccc(Cl)c(F)c3)nn2)[C@@H](O)[C@@H](CO)O[C@@H]1CC1CC(C2CCN(C(=O)OC(C)(C)C)CC2)=NO1` (stereo partly drawn) [Ex 1.116], the IC50 amounted to 170 nM on human Gal-3 (hGal-3) and 1750 nM on human Gal-1 (hGal-1).
`CO[C@@H]1[C@@H](n2cc(-c3ccc(Br)c(F)c3)nn2)[C@@H](O)[C@@H](CO)O[C@@H]1CC1CC(C2CCN(C(=O)OC(C)(C)C)CC2)=NO1` (stereo partly drawn) [Ex 1.117]: the IC50 came to 330 nM on human Gal-3 (hGal-3) and 1140 nM at human Gal-1 (hGal-1).
Consider `CO[C@@H]1[C@@H](n2cc(-c3cc(F)cc(F)c3)nn2)[C@@H](O)[C@@H](CO)O[C@@H]1CC1CC(C2CCN(C(=O)OC(C)(C)C)CC2)=NO1` (stereo partly drawn) [Ex 1.118], for which the IC50 at human Gal-3 (hGal-3) was determined as 330 nM; on human Gal-1 (hGal-1) it was 1470 nM.
Take `CO[C@@H]1[C@@H](n2cc(-c3cc(F)c(F)c(F)c3)nn2)[C@@H](O)[C@@H](CO)O[C@@H]1Cc1cc(-c2ccn(C)c(=O)c2)on1` [Ex 1.119]: the IC50 on human Gal-3 (hGal-3) is 260 nM; at human Gal-1 (hGal-1), 4170 nM.
The like results for `CO[C@@H]1[C@@H](n2cc(-c3cc(F)c(F)c(F)c3)nn2)[C@@H](O)[C@@H](CO)O[C@@H]1Cc1cc(C2CCCCC2)no1` [Ex 1.120] were, in that order, 290 nM and 10600 nM.
Regarding `CO[C@@H]1[C@@H](n2cc(-c3ccc(Cl)c(F)c3)nn2)[C@@H](O)[C@@H](CO)O[C@@H]1Cc1cc(C2CCN(C(=O)OC(C)(C)C)CC2)on1` [Ex 1.121], the IC50 on human Gal-3 (hGal-3) was 82 nM; on human Gal-1 (hGal-1), 1090 nM.
Turning to `CO[C@@H]1[C@@H](n2cc(-c3cc(F)cc(F)c3)nn2)[C@@H](O)[C@@H](CO)O[C@@H]1Cc1cc(C2CCN(C(=O)OC(C)(C)C)CC2)on1` [Ex 1.122], the IC50 on human Gal-3 (hGal-3) was 140 nM; on human Gal-1 (hGal-1) it was 720 nM.
On to `CO[C@@H]1[C@@H](n2cc(-c3cccc(F)c3)nn2)[C@@H](O)[C@@H](CO)O[C@@H]1Cc1cc(C2CCN(C(=O)OC(C)(C)C)CC2)no1` [Ex 1.123], for which the IC50 on human Gal-3 (hGal-3) and at human Gal-1 (hGal-1) was 140 nM throughout.
Regarding `CO[C@@H]1[C@@H](n2cc(-c3ccc(Cl)c(F)c3)nn2)[C@@H](O)[C@@H](CO)O[C@@H]1Cc1cc(C2CCN(C(=O)OC(C)(C)C)CC2)no1` [Ex 1.124], the IC50 at human Gal-3 (hGal-3) is 31 nM; on human Gal-1 (hGal-1), 800 nM.
For `CO[C@@H]1[C@@H](n2cc(-c3ccc(Br)c(F)c3)nn2)[C@@H](O)[C@@H](CO)O[C@@H]1Cc1cc(C2CCN(C(=O)OC(C)(C)C)CC2)no1` [Ex 1.125], in that order: 140 nM and 1000 nM.
`CO[C@@H]1[C@@H](n2cc(-c3cc(F)cc(F)c3)nn2)[C@@H](O)[C@@H](CO)O[C@@H]1Cc1cc(C2CCN(C(=O)OC(C)(C)C)CC2)no1` [Ex 1.126]: the results for the IC50 at human Gal-3 (hGal-3) and on human Gal-1 (hGal-1) were 81 nM and 440 nM, respectively.
For `CO[C@@H]1[C@@H](n2cc(-c3cc(F)c(F)c(F)c3)nn2)[C@@H](O)[C@@H](CO)O[C@@H]1Cc1cc(-c2nc(Br)cs2)on1` [Ex 1.127], in that order: 300 nM and 9840 nM.
For the molecule `CO[C@@H]1[C@@H](n2cc(-c3cc(F)c(F)c(F)c3)nn2)[C@@H](O)[C@@H](CO)O[C@@H]1CC1=NO[C@@H](C2CCCCC2)C1` [Ex 1.128], the values for the IC50 at human Gal-3 (hGal-3) and at human Gal-1 (hGal-1) were 870 nM and 15400 nM, respectively.

By IC50 is commonly meant the concentration that gives 50% inhibition. High values mean a need for much substance, low ones inhibition by little substance.
